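These data come from cells grown in 96-well plates and exposed to compound for 48 hours at five concentrations. GI50 is the concentration that inhibits growth by half.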 Activity calls are given as the source filed them. Rule as the data show it: active = GI50 up to about 1.1 µM and inactive = higher.
Legend:
Experiment in all cases: growth of human tumour cells (NCI), 48 h
A549 = test system: A549
HOP-62 = test system: HOP-62
HT-29 = test system: HT-29
IGROV-1 = test system: IGROV-1
NCI-H522 = test system: NCI-H522
OVCAR-5 = test system: OVCAR-5
OVCAR-8 = test system: OVCAR-8
SF-539 = test system: SF-539
SK-MEL-5 = test system: SK-MEL-5
SK-OV-3 = test system: SK-OV-3
SR = test system: SR
SW-620 = test system: SW-620
U-251 = test system: U-251
SK-MEL-28 = test system: SK-MEL-28
SNB-19 = test system: SNB-19
UACC-257 = test system: UACC-257

Measured: GI50

COc1ccc(C(C2=C(C)C(=O)c3ccccc3C2=O)c2ccc(C(C)C)cc(=O)c2O)cc1 (stereo unspecified)
inactive: A549 3.55 µM | HOP-62 2.59 µM | HT-29 6.04 µM | IGROV-1 4.16 µM | NCI-H522 13.8 µM | OVCAR-5 2.06 µM | OVCAR-8 4.18 µM | SF-539 2.69 µM | SK-MEL-5 5.96 µM | SK-OV-3 3.49 µM | SR 3.29 µM | SW-620 6.1 µM | U-251 3.12 µM

O=C(COc1ccc(/C=C/C(=O)c2ccc(Cl)cc2)cc1)Nc1c(Cl)cccc1Cl
inactive: A549 > 100 µM | HOP-62 > 100 µM | HT-29 > 100 µM | IGROV-1 > 100 µM | NCI-H522 33.1 µM | OVCAR-5 40.8 µM | OVCAR-8 51.4 µM | SF-539 80.7 µM | SK-MEL-28 > 100 µM | SK-MEL-5 48.3 µM | SK-OV-3 58.3 µM | SNB-19 > 100 µM | SR 50 µM | SW-620 > 100 µM | U-251 68.2 µM | UACC-257 79.8 µM

OC(c1ccccc1)(c1ccccc1)c1ccccn1
inactive: A549 > 100 µM | HOP-62 > 100 µM | HT-29 > 100 µM | IGROV-1 > 100 µM | NCI-H522 > 100 µM | OVCAR-5 > 100 µM | OVCAR-8 > 100 µM | SF-539 > 100 µM | SK-MEL-28 > 100 µM | SK-MEL-5 > 100 µM | SK-OV-3 > 100 µM | SNB-19 > 100 µM | SR > 100 µM | SW-620 > 100 µM | U-251 > 100 µM | UACC-257 > 100 µM

N#CC1(C#N)C2C=CC(c3coc4cccc2c34)C1(C#N)C#N (stereo unspecified)
inactive: A549 17.9 µM | HOP-62 22.6 µM | HT-29 18.9 µM | IGROV-1 18.7 µM | NCI-H522 1.66 µM | OVCAR-5 17 µM | OVCAR-8 3.47 µM | SF-539 20.2 µM | SK-MEL-28 3.66 µM | SK-MEL-5 15.4 µM | SK-OV-3 17.7 µM | SNB-19 18.8 µM | SR 3.01 µM | SW-620 1.61 µM | U-251 19.5 µM | UACC-257 10.8 µM

C/C=C1\Oc2ccc(OC)cc2S1(=O)=O
inactive: A549 > 100 µM | HOP-62 > 100 µM | HT-29 > 100 µM | IGROV-1 > 100 µM | NCI-H522 > 100 µM | OVCAR-5 > 100 µM | OVCAR-8 > 100 µM | SK-MEL-28 > 100 µM | SK-MEL-5 > 100 µM | SK-OV-3 > 100 µM | SNB-19 > 100 µM | SR > 100 µM | SW-620 > 100 µM | U-251 > 100 µM | UACC-257 > 100 µM

C=CCSc1ncnc2c1ncn2C1OC(CO)C(O)C1O (stereo unspecified)
inactive: A549 > 100 µM | HOP-62 35.1 µM | HT-29 32.6 µM | IGROV-1 > 100 µM | NCI-H522 11.9 µM | OVCAR-5 60.5 µM | OVCAR-8 3.85 µM | SF-539 37.5 µM | SK-MEL-28 > 100 µM | SK-MEL-5 > 100 µM | SK-OV-3 30.5 µM | SNB-19 > 100 µM | SR > 100 µM | SW-620 14.4 µM | U-251 > 100 µM | UACC-257 > 100 µM

Cc1cc2c(=O)cc(-c3ccc(O)cc3)oc2c(C(=O)O)c1C
inactive: A549 > 100 µM | HOP-62 > 100 µM | HT-29 > 100 µM | IGROV-1 > 100 µM | NCI-H522 > 100 µM | OVCAR-5 > 100 µM | OVCAR-8 > 100 µM | SF-539 > 100 µM | SK-MEL-28 > 100 µM | SK-MEL-5 > 100 µM | SK-OV-3 > 100 µM | SNB-19 > 100 µM | SR > 100 µM | SW-620 > 100 µM | U-251 > 100 µM | UACC-257 > 100 µM

Nc1nc2c3nc(Nc4ccccc4)sc3nc(=S)n2c2sc(Nc3ccccc3)nc12
inactive: A549 > 100 µM | HOP-62 > 100 µM | HT-29 > 100 µM | IGROV-1 > 100 µM | NCI-H522 8.34 µM | OVCAR-8 15.2 µM | SF-539 > 100 µM | SK-MEL-28 > 100 µM | SK-MEL-5 > 100 µM | SK-OV-3 > 100 µM | SNB-19 40.1 µM | SR 5.19 µM | SW-620 > 100 µM | U-251 15.5 µM | UACC-257 > 100 µM

Cc1ccc(-c2cc(-c3ccco3)nc(N)n2)o1
inactive: A549 > 100 µM | HOP-62 > 100 µM | HT-29 > 100 µM | IGROV-1 > 100 µM | NCI-H522 > 100 µM | OVCAR-5 > 100 µM | OVCAR-8 > 100 µM | SF-539 > 100 µM | SK-MEL-28 > 100 µM | SK-MEL-5 > 100 µM | SNB-19 > 100 µM | SR > 100 µM | SW-620 > 100 µM

From ChEMBL document CHEMBL1201862, “PubChem BioAssay data set” (2004)
